19 compounds from patent US8524722B2, “Substituted tricyclic compounds and methods of use thereof” (Bayer Intellectual Property GmbH, priority 2007, dated 2013) can be followed below.

The target in the first assay is Epidermal Growth Factor Receptor (EGFR) (Homo sapiens (Human), UniProt P00533). Nature of the assay: EGFR HTRF kinase assay. Type of assay: biochemical.
Chain of Epidermal Growth Factor Receptor (EGFR) (P00533 25-1210): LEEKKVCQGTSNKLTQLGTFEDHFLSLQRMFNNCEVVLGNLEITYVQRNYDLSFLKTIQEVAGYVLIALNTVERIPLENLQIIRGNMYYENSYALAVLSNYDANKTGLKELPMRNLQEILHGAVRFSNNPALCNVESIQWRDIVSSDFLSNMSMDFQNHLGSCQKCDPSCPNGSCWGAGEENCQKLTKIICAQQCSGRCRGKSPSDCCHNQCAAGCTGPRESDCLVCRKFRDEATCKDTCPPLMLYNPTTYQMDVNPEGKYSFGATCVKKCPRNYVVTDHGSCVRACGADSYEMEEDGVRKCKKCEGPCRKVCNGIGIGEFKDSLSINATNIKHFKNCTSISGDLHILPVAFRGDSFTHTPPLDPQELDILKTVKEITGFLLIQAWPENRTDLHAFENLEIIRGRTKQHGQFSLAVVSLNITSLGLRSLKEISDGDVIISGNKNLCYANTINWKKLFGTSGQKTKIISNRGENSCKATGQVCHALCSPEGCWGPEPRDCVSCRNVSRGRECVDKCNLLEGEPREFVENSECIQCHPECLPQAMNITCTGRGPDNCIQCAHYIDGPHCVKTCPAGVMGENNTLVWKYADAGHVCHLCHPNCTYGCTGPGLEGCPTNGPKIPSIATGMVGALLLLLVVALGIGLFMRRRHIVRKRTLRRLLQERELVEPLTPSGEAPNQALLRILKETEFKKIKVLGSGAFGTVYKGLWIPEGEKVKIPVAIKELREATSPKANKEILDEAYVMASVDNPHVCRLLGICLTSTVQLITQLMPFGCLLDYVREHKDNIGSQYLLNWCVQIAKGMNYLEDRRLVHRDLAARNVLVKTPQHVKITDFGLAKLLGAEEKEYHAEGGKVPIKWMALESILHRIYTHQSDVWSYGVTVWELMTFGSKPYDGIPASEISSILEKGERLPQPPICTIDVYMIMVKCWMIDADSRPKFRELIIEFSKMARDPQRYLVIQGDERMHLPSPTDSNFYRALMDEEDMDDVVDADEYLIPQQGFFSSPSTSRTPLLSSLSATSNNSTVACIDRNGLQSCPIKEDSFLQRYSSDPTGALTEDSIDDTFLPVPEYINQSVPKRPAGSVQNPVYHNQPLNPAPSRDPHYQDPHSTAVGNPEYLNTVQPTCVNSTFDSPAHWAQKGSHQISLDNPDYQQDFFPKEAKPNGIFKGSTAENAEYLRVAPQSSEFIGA
Conditions: not given
On the procedure: EGFR inhibitory activity of compounds of the present invention is quantified employing the EGFR HTRF assay as described in the following paragraphs:
Epidermal Growth Factor Receptor (EGFR), affinity-purified from human carcinoma A431 cells (Sigma-Aldrich, # E3641), is used as kinase. As substrate for the kinase reaction, the biotinylated peptide biotin-Ahx-[…] (C-terminus in amide form) is used (available from, e.g., Biosynthan GmbH, Berlin-Buch, Germany).
EGFR is incubated for 30 min at 22° C. in the presence of different concentrations of test compounds in 5 μl assay buffer [50 mM Hepes/NaOH pH 7.0, 1 mM MgCl2, 5 mM MnCl2, 1.0 mM dithiothreitol, 0.5 mM sodium orthovanadate, 10 μM adenosine triphosphate (ATP), 1 μM substrate, 0.005% (v/v) Tween-20, 1% (v/v) dimethylsulfoxide]. The concentration of EGFR is adjusted depending on the activity of the enzyme lot and is chosen appropriate to have the assay in the linear range; typical concentrations are in the range of 20 U/ml. The reaction is stopped by the addition of 5 μl of a solution of HTRF detection reagents [0.1 μM streptavidine-XLent and 1 nM PT66-Eu-Chelate, an Europium-chelate labelled anti-phosphotyrosine antibody (Perkin Elmer)] in an aqueous EDTA solution [80 mM EDTA, 0.2% (w/v) bovine serum albumin in 50 mM HEPES/NaOH pH 7.0].
The resulting mixture is incubated for 1 h at 22° C. to allow the binding of the biotinylated phosphorylated peptide to the streptavidine-XLent and the PT66-Eu-Chelate. Subsequently, the amount of phosphorylated substrate is evaluated by measurement of the resonance energy transfer from the PT66-Eu-Chelate to the streptavidine-XLent. Therefore, the fluorescence emissions at 620 nm and 665 nm after excitation at 350 nm are measured in an HTRF reader, e.g. a Rubystar (BMG Labtechnologies, Offenburg, Germany) or a Viewlux (Perkin-Elmer). The ratio of the emissions at 665 nm and at […] is taken as the measure for the amount of phosphorylated substrate.
The term IC50 denotes the midpoint of a concentration-inhibition curve. Lower therefore signals greater potency in that assay. For the compound `CC(C)N(C)C/C=C/C(=O)N1CCc2c(sc3ncnc(Nc4cc(O)cc(Cl)c4)c23)C1` [Example 123, 3-Chloro-5-[(7-{(2E)-4-[methyl(1-methylethyl)amino]but-2-enoyl}-5,6,7,8-tetrahydropyrido[4′,3′:4,5]thieno[2,3-d]pyrimidin-4-yl)amino]phenol], 1 nM corresponded to half-maximal inhibition (IC50).

The same assay, now with this note: EGFR affinity-purified from A431 cells, 10 μM ATP, 30 min at 22° C.
With `O=C(/C=C/CN1CCCOCC1)N1CCc2c(sc3ncnc(Nc4ccc(F)c(Cl)c4)c23)C1` [Example 5, N-(3-Chloro-4-fluorophenyl)-7-[(2E)-4-(1,4-oxazepan-4-yl)but-2-enoyl]-5,6,7,8-tetrahydropyrido[4′,3′:4,5]thieno[2,3-d]pyrimidin-4-amine], half-maximal inhibition (IC50) required 1 nM.

`O=C(/C=C/CN1C2CCC1CC2)N1CCc2c(sc3ncnc(Nc4ccc(F)c(Cl)c4)c23)C1` [Example 10, 7-[(2E)-4-(7-Azabicyclo[2.2.1]hept-7-yl)but-2-enoyl]-N-(3-chloro-4-fluorophenyl)-5,6,7,8-tetrahydropyrido[4′,3′:4,5]thieno[2,3-d]pyrimidin-4-amine] registered an IC50 of 1.1 nM.

Turning to `CC(C)(CN1CCOCC1)NC/C=C/C(=O)N1CCc2c(sc3ncnc(Nc4ccc(F)c(Cl)c4)c23)C1` [Example 12, N-(3-Chloro-4-fluorophenyl)-7-{(2E)-4-[(1,1-dimethyl-2-morpholin-4-ylethyl)amino]but-2-enoyl}-5,6,7,8-tetrahydropyrido[4′,3′:4,5]thieno[2,3-d]pyrimidin-4-amine], 1 nM corresponded to half-maximal inhibition (IC50).

The compound `O=C(/C=C/[C@@H]1CCCN1)N1CCc2c(sc3ncnc(Nc4ccc(F)c(Cl)c4)c23)C1` [Example 13, N-(3-Chloro-4-fluorophenyl)-7-{(2E)-3-[(2S)-pyrrolidin-2-yl]prop-2-enoyl}-5,6,7,8-tetrahydropyrido[4′,3′:4,5]thieno[2,3-d]pyrimidin-4-amine] gave an IC50 of 2 nM.

On to `CN1CCC[C@H]1/C=C/C(=O)N1CCc2c(sc3ncnc(Nc4ccc(F)c(Cl)c4)c23)C1` [Example 14, N-(3-Chloro-4-fluorophenyl)-7-{(2E)-3-[(2S)-1-methylpyrrolidin-2-yl]prop-2-enoyl}-5,6,7,8-tetrahydropyrido[4′,3′:4,5]thieno[2,3-d]pyrimidin-4-amine], for which 1 nM corresponded to half-maximal inhibition (IC50).

As to `C[C@@H](Nc1ncnc2sc3c(c12)CCN(C(=O)/C=C/CN(C)C)C3)c1ccccc1` [Example 23, 7-[(2E)-4-(Dimethylamino)but-2-enoyl]-N-[(1R)-1-phenylethyl]-5,6,7,8-tetrahydropyrido[4′,3′:4,5]thieno[2,3-d]pyrimidin-4-amine], 4.6 nM corresponded to half-maximal inhibition (IC50).

For `COCCN(C/C=C/C(=O)N1CCc2c(sc3ncnc(Nc4ccc(F)c(Cl)c4)c23)C1)CCOC` [Example 31], the IC50 turned out to be 1 nM.

As to `CN(C)C(=O)N1CCN(C/C=C/C(=O)N2CCc3c(sc4ncnc(Nc5ccc(F)c(Cl)c5)c34)C2)CC1` [Example 70], the IC50 turned out to be 1 nM.

`CN(C)C/C=C/C(=O)N1Cc2sc3ncnc(Nc4ccc(F)c(Cl)c4)c3c2C1` [Example 81, N-(3-Chloro-4-fluorophenyl)-6-[(2E)-4-(dimethylamino)but-2-enoyl]-6,7-dihydro-5H-pyrrolo[3′,4′:4,5]thieno[2,3-d]pyrimidin-4-amine] displayed an IC50 of 12 nM.

The compound `CN(C)C/C=C/C(=O)N1Cc2sc3ncnc(Nc4ccc(OCc5cccc(F)c5)c(Cl)c4)c3c2C1` [Example 86, N-{3-Chloro-4-[(3-fluorobenzyl)oxy]phenyl}-6-[(2E)-4-(dimethylamino)but-2-enoyl]-6,7-dihydro-5H-pyrrolo[3′,4′:4,5]thieno[2,3-d]pyrimidin-4-amine] registered an IC50 of 5 nM.

`CN(C)C/C=C/C(=O)N1Cc2sc3ncnc(Nc4ccc(OCc5ccccn5)c(Cl)c4)c3c2C1` [Example 87, N-[3-Chloro-4-(pyridin-2-ylmethoxy)phenyl]-6-[(2E)-4-(dimethylamino)but-2-enoyl]-6,7-dihydro-5H-pyrrolo[3′,4′:4,5]thieno[2,3-d]pyrimidin-4-amine]: it took 19 nM to reach half-maximal inhibition (IC50).

Take `CC(C)N(C)C/C=C/C(=O)N1CCc2c(oc3ncnc(Nc4ccc(F)c(Cl)c4)c23)C1` [Example 90, N-(3-Chloro-4-fluorophenyl)-7-{(2E)-4-[methyl(1-methylethyl)amino]but-2-enoyl}-5,6,7,8-tetrahydropyrido[4′,3′:4,5]furo[2,3-d]pyrimidin-4-amine]: the midpoint of inhibition, the IC50, lay at 1 nM.

Compound `CN(C)C/C=C/C(=O)N1CCc2c(sc3ncc(C#N)c(Nc4ccc(F)c(Cl)c4)c23)C1` [Example 95, 4-[(3-Chloro-4-fluorophenyl)amino]-7-[(2E)-4-(dimethylamino)but-2-enoyl]-5,6,7,8-tetrahydrothieno[2,3-b:5,4-c′]dipyridine-3-carbonitrile] displayed an IC50 of 10 nM.

The compound `CN(C/C=C/C(=O)N1CCc2c(sc3ncnc(Nc4cc(O)c(Cl)c(Cl)c4)c23)C1)C(C)(C)C` [Example 134, 5-[(7-{(2E)-4-[tert-Butyl(methyl)amino]but-2-enoyl}-5,6,7,8-tetrahydropyrido[4′,3′:4,5]thieno[2,3-d]pyrimidin-4-yl)amino]-2,3-dichlorophenol] registered an IC50 of 1 nM.

On to `CC(C)N(C)C/C=C/C(=O)N1CCc2sc3ncnc(Nc4ccc(Cl)c(Cl)c4)c3c2C1` [Example 139, N-(3,4-Dichlorophenyl)-6-{(2E)-4-[methyl(1-methylethyl)amino]but-2-enoyl}-5,6,7,8-tetrahydropyrido[3′,4′:4,5]thieno[2,3-d]pyrimidin-4-amine], for which the half-inhibitory concentration (IC50) was determined as 9.2 nM.

`O=C(/C=C/CN1CCCOCC1)N1CCCc2c(sc3ncnc(Nc4ccc(Cl)c(Cl)c4)c23)C1` [Example 143, N-(3,4-Dichlorophenyl)-8-[(2E)-4-(1,4-oxazepan-4-yl)but-2-enoyl]-6,7,8,9-tetrahydro-5H-pyrimido[5′,4′:4,5]thieno[2,3-c]azepin-4-amine] registered an IC50 of 1 nM.

`N#Cc1cnc2sc3c(c2c1Nc1ccc(Cl)c(Cl)c1)CCN(C(=O)/C=C/CN1CCCOCC1)C3` [Example 148, 4-[(3,4-Dichlorophenyl)amino]-7-[(2E)-4-(1,4-oxazepan-4-yl)but-2-enoyl]-5,6,7,8-tetrahydrothieno[2,3-b:5,4-c′]dipyridine-3-carbonitrile] had an IC50 of 4.3 nM.

`CC(C)N(C)C/C=C/C(=O)N1CCc2c(sc3ncc(C#N)c(Nc4ccc5c(cnn5Cc5cccc(F)c5)c4)c23)C1` [Example 151, 4-{[1-(3-Fluorobenzyl)-1H-indazol-5-yl]amino}-7-{(2E)-4-[methyl(1-methylethyl)amino]but-2-enoyl}-5,6,7,8-tetrahydrothieno[2,3-b:5,4-c′]dipyridine-3-carbonitrile] came in with an IC50 of 6.4 nM.
